Peptide text beside a SMILES is read from it.
What was measured:
[1] = test system: HLF cells; assay: Apoptosis by annexin V-FITC staining, flow cytometry; format: cell-based; settings: calpain inhibitor 2 at 10 μM
Procedure: (§1) P53 was administered to the cells by the use of the replication defective adenoviral vector ACN53 described in Wills, et al., supra. The effect of varying concentrations of rAd-p53 (from […] to 2×10^9 rAd-p53 particles/ml of solution) was investigated in combination with CI-1 in a range of 5–20 μm. The effects of individual and combination treatment was determined in the in DLD1, RKO, HLF and SK-Hep1 cells was investigated in substantial accordance with the teaching of Examples 2 and 3 herein. The percentage of apoptotic cells was determined at 17 hours post treatment (with the exception of U87 cells (24 hours) and HeLa cells (68 hours)) with annexin V positive staining. The results are presented in graphical format in FIG. 3 of the attached drawings. In brief, the results were as follows:
To quantitate the increased efficacy of rAd-p53 induced cell killing in tumor cell lines in response to CI-1 treatment, HLF cells were infected with increasing concentrations of rAd-p53 with or without 10 μM CI-1, and assayed for percentage apoptotic cells by annexin V-FITC staining 42 hours post-treatment in substantial accordance with the teaching of Example 3 herein. […] No increase in annexin V-FITC positive cells was detected at 1×10^5 particles/ml rAd-p53 with or without 10 μM CI-1. At 1×10^6 particles/ml rAd-p53, the percentage apoptotic cells without CI-1 was 14%, while 40% of annexin V positive cells was detected when cell were treated with 10 μM CI-1. At a concentration of 1×10^7 ACN53 particles/ml, 17% annexin V positive without and 63% with 10 μM CI-1 was detected. At 1×10^8 particles/ml, 52% were annexin V positive without and 70% positive with inhibitor treatment. At a dose of 1×10^9 particles of rAd-p53, however, the percentage annexin V positive was about the same for both 77% without and 74% with 10 μM CI-1. […] concentration of rAd-p53 was sufficient to induce approximately 50% cell death, while only a 1×10^7 particle/ml concentration rAd-p53 was needed to induce approximately the same percentage of cell death when 10 μM CI-1 as added.
(§2) The effect of an inhibitor of μ-calpains, CI-1 (N-acetyl-leu-leu-norleucinal), was investigated for its ability to enhance p53 mediated apoptosis in tumor cell lines having p53+ and p53− status listed in Table1. Each cell line was treated with 5–50 μM CI-1 for 17–26 hours. To detect a G0/G1 block, bromodeoxyuridine (BrdU) incorporation followed by flow cytometric analysis was done 17 hours post-treatment as described in Example 4 herein. […] The results of these experiments are presented in FIGS. 1 and 2 of the attached drawings. In FIG. 1, each point on the graph represents percentage annexin V positive after background percentage (DMF alone) was subtracted.
(§3) An aliquot containing approximately 1×10^6 cells of each type was placed in a T-225 flask. The effect of varying concentrations of rAd-p53 (from 1×10^7 to 2×10^9ACN53 particles/ml of solution) was investigated in combination with CI-1 in a range of 5–20 μM. In each instance, the cell line was infected with 1×10^7–1×10^9 particles/ml of cell culture with the ACN53 using the empty cassette virus (ZZCB) as a control. In each instance, the cells were exposed to the virus for a period of one hour. At the end of this time, the virus was washed off the from the cells and fresh media containing an appropriate concentration of CI-1 was added.
HLF cells were infected at increasing log concentrations of rAd-p53 ranging from 1×10^5 to 1×10^9 for one hour at which time virus was washed off and replaced with fresh media (viral infection with no treatment) or with 10 μM calpain inhibitor 1. Cells were assayed for apoptosis by annexin V-FITC staining at 24 and 42 hours post-infection.
CI-1 was obtained from Boehringer-Mannheim Biochemicals (Indianapolis, Ind.). The CI-1 containing media was prepared as follows. CI-1 was diluted in dimethylformamide (DMF) to a concentration of 33.3 μM/μl. […]

[2] = test system: SK-Hep1 cells; assay: as above; format: cell-based; settings: calpain inhibitor 2 at 20 μM; endogenous wildtype p53
Procedure: as §1, §2, §3
CI-1 was obtained from Boehringer-Mannheim Biochemicals (Indianapolis, Ind.). The CI-1 containing media was prepared as follows. CI-1 was diluted in dimethylformamide (DMF) to a concentration of 33.3 μM/μl. The CI-1 solution in DMF was added to achieve a final concentration in the media of 5 or 10 μM final concentration of CI-1. An equivalent volume of DMF alone was added to the control cells. Calpain inhibitor 2, N-acetyl-leu—leu-methioninal (Boehringer Mannheim) was added to cell lines at 5–50 μM final concentration with or without rAd-p53 for 26 hours.
At a time of 17 (or 26 hours) post infection, the percentage of cells undergoing apoptosis was determined by convential apoptotic markers. Apoptosis was monitored visually by observing blebbed nuclei characteristic of apoptosis, by propidium iodide staining (using propidium iodide commercially available from Molecular Probes, Inc.) followed by flow cytometric analysis to look for subgenomic populations of cells, and by labeling cells with annexin V-FITC (commercially available from Boehringer Mannheim) in substantial accordance with the instructions provided by the manufacturer, followed by flow cytometric analysis on a FACScan Flow Cytometer (commercially available from Becton Dickinson).

`CSCC[C@@H](C=O)NC(=O)[C@H](CC(C)C)NC(=O)[C@H](CC(C)C)NC(C)=O` [CI-2, N-acetyl-leu—leu-methioninal] (Ac-Leu-Leu-Met-aldehyde) was tested, and the “effect on the induction of apoptosis in combination with rAd-p53” value [1] was “no significant effect” and the “increase in annexin V-FITC positive cells” value [2] was “no significant increase”.
